Like-named read-outs stand apart in the source and are kept apart here.
What was measured:
[1] = test system: ME-180 cells; test: Cancer cell proliferation assay, ME-180; type: cell-based; conditions: Homo sapiens, ME-180; Table 1; 72 h; read-out: 72-hr Viability ME-180 IC50
[2] = test system: hypoxia signaling genes; test: Real-time qPCR of human hypoxia signaling gene panel in ME-180 cells; conditions: 1% O2, 18 h, at IC50 concentration of HIF-1α–NanoLuc assay
[3] = test system: hypoxia response element-beta-lactamase (HRE–bla); test: HRE-bla reporter gene assay in ME-180 cells; type: cell-based, human; conditions: Homo sapiens; for Emax: ME-180; for IC50: ME-180 cells, 1% O2, 18 h, read-out: HRE-bla IC50
[4] = test system: HCT116 cells; test: Cancer cell proliferation assay, HCT116; type: cell-based, human; conditions: Table 1, 72 h
[5] = test system: HIF-1α–NanoLuc; test: HIF-1α–NanoLuc reporter gene assay (qHTS primary and confirmatory screens); type: cell-based, human; conditions: Homo sapiens
[6] = test system: HIF-1α–NanoLuc HCT116 cells; test: Viability (Luc): CellTiter-Glo counter screen in HIF-1α–NanoLuc cells; type: cell-based, human; conditions: Table S7, 1% O2, 18 h
[7] = test system: co-cultures of human aortic endothelial cells and human mesenchymal stem cells; test: In vitro angiogenesis co-culture assay (tube formation); type: cell-based; conditions: three-day exposure; for IC50 / Emax: Homo sapiens, 72 h, Table 1; for IC50: tube formation; for Emax: percentage of inhibition compared to DMSO controls, read-out: Angiogenesis Efficacy (converted); for Angiogenesis inhibition, result in words: co-culture assay
[8] = test system: HRE–bla ME-180 cells; test: Viability (BLA): CellTiter-Glo counter screen in HRE–bla cells; type: cell-based, human; conditions: for IC50: Homo sapiens, ME-180, Table S7, confirmatory screen, 1% O2, 18 h
[9] = Table 1, percentage of inhibition compared to DMSO controls, read-out: HRE-bla Efficacy (converted)
[10] = Table S7, confirmatory screen, read-out: HRE–bla confirmatory Efficacy
[11] = HCT-116, Table 1, HCT116 reporter cells, hypoxia 1% O2, 18 h, confirmatory, read-out: HIF-1α-NanoLuc IC50
[12] = Table 1, percentage of inhibition compared to DMSO controls, read-out: HIF-1α-NanoLuc Efficacy (converted)
[13] = Table S2, validation, read-out: Pathway inhibitors (validation) HIF-1α–NanoLuc Activity Efficacy
[14] = Table S7, confirmatory screen, read-out: HIF-1α–NanoLuc confirmatory Efficacy

IC50 [1]	IC50 ([3]; Table 1)	IC50 [5, 11]	IC50 [7]	IC50 ([4]; Homo sapiens, HCT-116, read-out: 72-hr Viability HCT116 IC50)	IC50 ([5]; Table S7, primary screen, read-out: HIF-1α–NanoLuc primary IC50)	SMILES	Effect on expression of hypoxia-induced genes, in words [2]	Emax [3, 9]	Emax [3, 10]	72-hr Viability HCT116 IC50 [4]	Emax [5, 12]	Emax [5, 13]	IC50 ([5]; Table S2, validation, read-out: Pathway inhibitors (validation) HIF-1α–NanoLuc Activity IC50)	Emax [5, 14]	Viability (Luc) confirmatory IC50 [6]	Emax [7]	Angiogenesis inhibition, result in words [7]	IC50 [8]	Viability (BLA) confirmatory IC50 ([8]; Table S7, 1% O2, 18 h)	Emax ([5]; Table S7, primary screen, read-out: HIF-1α–NanoLuc primary Efficacy)
60 ± 20 nM	20500 ± 8110 nM	2980 ± 4640 nM	0.05 ± 0.05 nM	640 ± 110 nM	–	CC(=O)Nc1cccc(-n2c(=O)n(C3CC3)c(=O)c3c(Nc4ccc(I)cc4F)n(C)c(=O)c(C)c32)c1 [Trametinib]	decreased expression levels of HIF1A and many hypoxia responsive genes	53%	53 ± 9%	–	69%	69 ± 5%	–	69 ± 5%	Inactive	89%	picomolar IC50 value	–	Inactive	–
1820 ± 740 nM	210 ± 50 nM	1580 ± 450 nM	110 ± 60 nM	–	330 nM	COc1c(C)c2c(c(O)c1C/C=C(\C)CCC(=O)OCCN1CCOCC1)C(=O)OC2 [Mycophenolate mofetil]	–	58%	58 ± 4%	Inactive	59%	–	–	59 ± 5%	Inactive	93%	submicromolar concentrations	530 nM	–	61%

SMILES	IC50 [1]	IC50 ([3]; Table 1)	IC50 [5, 11]	IC50 [7]	IC50 ([4]; Homo sapiens, HCT-116, read-out: 72-hr Viability HCT116 IC50)	IC50 ([5]; Table S7, primary screen, read-out: HIF-1α–NanoLuc primary IC50)	Effect on expression of hypoxia-induced genes, in words [2]	Emax [3, 9]	Emax [3, 10]	72-hr Viability HCT116 IC50 [4]	Emax [5, 12]	Emax [5, 13]	IC50 ([5]; Table S2, validation, read-out: Pathway inhibitors (validation) HIF-1α–NanoLuc Activity IC50)	Emax [5, 14]	Viability (Luc) confirmatory IC50 [6]	Emax [7]	Angiogenesis inhibition, result in words [7]	IC50 [8]	Viability (BLA) confirmatory IC50 ([8]; Table S7, 1% O2, 18 h)	Emax ([5]; Table S7, primary screen, read-out: HIF-1α–NanoLuc primary Efficacy)
Oc1cccc(-c2nc(N3CCOCC3)c3oc4ncccc4c3n2)c1 [PI-103]	370 ± 20 nM	150 ± 20 nM	920 ± 60 nM	320 ± 90 nM	–	–	decreased the expression levels of all hypoxia-induced genes tested	62%	62 ± 3%	Inactive	57%	80 ± 3%	2770 ± 40 nM	57 ± 10%	Inactive	80%	submicromolar concentrations	770 ± 250 nM	–	–

From paper PMC4884984, “Identification of approved and investigational drugs that inhibit hypoxia-inducible factor-1 signaling” (Oncotarget, 2016)
